Experimental findings from paper PMC3302575 (Biochemistry, 2011) are described below.

Test in all cases: copurification, absorption spectroscopy of native protein
Common to all, as to type: binding

One experiment concerns the target T1, zebrafish CRY4 (ZfCRY4) (Danio rerio, UniProt Q9I912).
T1 sequence (Q9I912 1-558): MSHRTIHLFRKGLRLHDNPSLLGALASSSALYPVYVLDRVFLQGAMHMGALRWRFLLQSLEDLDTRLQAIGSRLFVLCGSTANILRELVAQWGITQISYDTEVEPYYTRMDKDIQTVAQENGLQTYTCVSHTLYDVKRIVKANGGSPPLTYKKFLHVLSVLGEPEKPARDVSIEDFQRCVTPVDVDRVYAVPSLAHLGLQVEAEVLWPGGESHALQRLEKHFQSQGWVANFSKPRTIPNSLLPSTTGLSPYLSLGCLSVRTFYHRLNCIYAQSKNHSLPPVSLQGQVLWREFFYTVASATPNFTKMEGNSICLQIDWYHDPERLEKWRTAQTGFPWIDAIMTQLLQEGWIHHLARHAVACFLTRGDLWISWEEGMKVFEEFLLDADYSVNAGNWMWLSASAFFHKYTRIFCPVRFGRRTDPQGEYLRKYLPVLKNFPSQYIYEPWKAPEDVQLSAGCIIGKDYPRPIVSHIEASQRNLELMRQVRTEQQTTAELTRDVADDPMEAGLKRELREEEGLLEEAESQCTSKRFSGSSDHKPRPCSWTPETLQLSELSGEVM
Particulars: Sf21 medium with or without F0; pH 7.5.

In experiment [1] the target is A. thaliana CRY2 (AtCRY2) (Arabidopsis thaliana, UniProt Q96524). The settings on record: Sf21 medium with or without F0; pH 7.4.
Sequence of A. thaliana CRY2 (AtCRY2) (Q96524 whole entry): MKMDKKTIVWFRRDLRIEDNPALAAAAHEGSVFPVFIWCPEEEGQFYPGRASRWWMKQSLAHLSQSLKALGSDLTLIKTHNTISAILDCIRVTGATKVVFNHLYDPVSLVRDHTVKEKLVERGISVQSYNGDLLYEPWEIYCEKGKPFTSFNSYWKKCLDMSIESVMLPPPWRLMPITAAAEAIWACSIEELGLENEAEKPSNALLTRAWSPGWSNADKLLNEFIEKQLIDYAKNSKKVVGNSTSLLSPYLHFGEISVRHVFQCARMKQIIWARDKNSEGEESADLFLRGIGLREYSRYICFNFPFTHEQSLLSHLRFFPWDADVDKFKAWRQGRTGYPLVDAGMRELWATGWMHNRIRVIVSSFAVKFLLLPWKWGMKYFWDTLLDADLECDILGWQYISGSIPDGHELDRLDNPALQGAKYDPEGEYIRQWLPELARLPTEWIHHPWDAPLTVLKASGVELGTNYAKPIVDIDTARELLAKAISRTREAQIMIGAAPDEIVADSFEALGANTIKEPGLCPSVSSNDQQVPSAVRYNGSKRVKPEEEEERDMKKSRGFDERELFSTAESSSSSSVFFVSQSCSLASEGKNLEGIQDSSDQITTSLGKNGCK
The target in experiment [2] is Drosophila cryptochrome (DmCRY) (Drosophila melanogaster, UniProt O77059). Particulars: Sf21 medium with or without F0; pH 7.5.
Sequence of Drosophila cryptochrome (DmCRY) (O77059 whole entry): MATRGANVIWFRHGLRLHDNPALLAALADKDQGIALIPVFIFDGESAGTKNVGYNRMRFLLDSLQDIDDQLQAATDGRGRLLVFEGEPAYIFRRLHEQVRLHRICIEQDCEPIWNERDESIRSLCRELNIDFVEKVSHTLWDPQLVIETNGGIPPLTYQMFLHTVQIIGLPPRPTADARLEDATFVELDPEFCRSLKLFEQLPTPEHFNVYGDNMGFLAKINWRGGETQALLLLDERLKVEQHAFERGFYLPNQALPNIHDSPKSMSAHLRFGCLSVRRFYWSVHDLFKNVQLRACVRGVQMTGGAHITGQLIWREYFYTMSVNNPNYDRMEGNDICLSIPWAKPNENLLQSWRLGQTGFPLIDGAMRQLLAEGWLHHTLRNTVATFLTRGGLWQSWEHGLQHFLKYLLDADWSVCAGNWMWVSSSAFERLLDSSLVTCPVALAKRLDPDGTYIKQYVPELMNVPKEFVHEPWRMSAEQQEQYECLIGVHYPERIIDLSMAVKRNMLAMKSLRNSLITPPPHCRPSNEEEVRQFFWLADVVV

For the molecule `Cc1cc2nc3c(=O)[nH]c(=O)nc-3n(C[C@H](O)[C@H](O)[C@H](O)COP(=O)(O)OP(=O)(O)OC[C@H]3O[C@@H](n4cnc5c(N)ncnc54)[C@H](O)[C@@H]3O)c2cc1C` [FAD], the “copurification, absorption spectroscopy of native protein” value on zebrafish CRY4 (ZfCRY4) was “both AtCRY2 (A,B) and ZfCRY4 (C,D), expressed with and without F0, contained FAD”; in experiment [1], “both AtCRY2 (A,B) and ZfCRY4 (C,D), expressed with and without F0, contained FAD”; in experiment [2], “exhibited only the spectra of enzyme-bound FAD (Fig. 4E,F)”.
